Assay results taken from patent US20090280160A1, “PHENYLEPHRINE PHARMACEUTICAL FORMULATIONS AND COMPOSITIONS FOR TRANSMUCOSAL ABSORPTION” (Schering-Plough Healthcare Products, Inc., priority 2007, published 2009).
“Also recorded” adds a separate entry of the source.

How the values were obtained:
[1] = biological target: T1, α2b adrenoreceptor (Homo sapiens, UniProt P18089); experiment: [35S]-GTPγS binding exchange, α2b CHO cell membranes; assay type: biochemical; settings: for stimulation of [35S]-GTPγS binding, α2b (in words): CHO cell membranes
T1 construct: expressed in transfected cells; host or cells: CHO (Chinese hamster ovary) cells, membranes
T1 sequence (P18089 1-450): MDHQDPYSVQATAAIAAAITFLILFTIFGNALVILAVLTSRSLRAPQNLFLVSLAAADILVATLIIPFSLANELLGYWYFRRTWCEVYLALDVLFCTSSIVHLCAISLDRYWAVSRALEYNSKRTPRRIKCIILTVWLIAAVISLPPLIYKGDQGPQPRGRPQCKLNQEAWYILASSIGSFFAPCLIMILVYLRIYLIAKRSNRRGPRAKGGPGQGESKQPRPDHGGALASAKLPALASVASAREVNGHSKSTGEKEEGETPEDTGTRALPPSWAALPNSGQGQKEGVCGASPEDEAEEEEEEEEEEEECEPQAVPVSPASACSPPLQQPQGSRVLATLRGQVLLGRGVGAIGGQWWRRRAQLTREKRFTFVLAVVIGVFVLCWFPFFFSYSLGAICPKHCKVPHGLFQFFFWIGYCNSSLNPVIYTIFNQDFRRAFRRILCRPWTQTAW
Method: (§1) The affinity and activity of phenylephrine metabolites were evaluated in human recombinant α1 and α2 adrenoreceptor binding and activity assays. […] Affinity of the metabolites was determined by receptor binding assays. Functional activity of the metabolites was assessed using an [^35S]-GTPγS binding exchange assay for the α2 receptor subtypes and a cell-based calcium flux response for the α1 receptor subtypes.
(§2) Assay buffer was 75 mM Tris-HCl pH 7.4, 12.5 mM MgCl2, 2 mM EDTA and 1 μM GDP. Plates were counted on a Packard TopCount. The percent increase over basal binding of [^35S]-GTPγS, a measure of efficacy, was calculated as follows: 100×[[mean total sample cpm−basal cpm]÷by basal cpm]. Basal cpm was defined as the mean cpm in the absence of agonist compound minus the mean non-specific binding cpm.
(§3) Each metabolite was evaluated in each assay in at least 2 independent experiments and a representative assay of each metabolite/assay combination is shown.

[2] = oral, approximately 24 mg of PE, healthy volunteers; cited from earlier work
[3] = biological target: T2, α1b adrenoreceptor (Homo sapiens, UniProt P35368); experiment: Competition binding, [3H]-prazosin, α1b CHO cell membranes
T2 construct: expressed in transfected cells
T2 sequence (P35368 1-520): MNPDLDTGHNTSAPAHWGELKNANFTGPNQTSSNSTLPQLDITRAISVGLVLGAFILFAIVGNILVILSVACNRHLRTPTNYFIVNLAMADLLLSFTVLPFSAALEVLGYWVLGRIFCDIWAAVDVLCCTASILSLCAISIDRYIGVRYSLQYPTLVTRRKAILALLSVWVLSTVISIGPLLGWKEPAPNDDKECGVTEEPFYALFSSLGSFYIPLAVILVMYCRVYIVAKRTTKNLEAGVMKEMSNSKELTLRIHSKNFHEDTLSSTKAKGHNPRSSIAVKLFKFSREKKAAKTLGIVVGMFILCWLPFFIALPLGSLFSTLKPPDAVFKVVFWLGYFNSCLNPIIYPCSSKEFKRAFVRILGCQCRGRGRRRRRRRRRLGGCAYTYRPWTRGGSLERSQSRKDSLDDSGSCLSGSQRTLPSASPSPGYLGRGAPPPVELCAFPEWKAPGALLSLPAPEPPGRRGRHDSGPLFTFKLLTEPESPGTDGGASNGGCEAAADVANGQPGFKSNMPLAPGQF
Method: as §1
(§4) Competition Binding Assays
(§5) Competition binding assays for the α2 adrenoreceptors were performed using 20 μg membrane protein per well in binding buffer (75 mM Tris-HCl pH 7.4, 12.5 mM MgCl2, […] EDTA, 0.2% bovine serum albumin). […] Binding was terminated by rapid filtration through GF/C unifilter plates, presoaked with 0.3% polyethylenimine, with five washes with 0.5 ml cold 50 mM Tris-HCl ph 7.4, using a Packard Filtermate Harvester. After drying, bound radioactivity was determined by liquid scintillation counting (Packard TopCount) with Microscint 20, 50 μl/well. Binding data were analyzed using GraphPad Prism.
as §3

[4] = biological target: T3, α2a adrenoreceptor (Homo sapiens, UniProt P08913); experiment: [35S]-GTPγS binding exchange, α2a CHO cell membranes; assay type: biochemical; settings: for stimulation of [35S]-GTPγS binding, α2a (in words): CHO cell membranes
T3 construct: expressed in transfected cells; host or cells: CHO (Chinese hamster ovary) cells, membranes
T3 sequence (P08913 1-465): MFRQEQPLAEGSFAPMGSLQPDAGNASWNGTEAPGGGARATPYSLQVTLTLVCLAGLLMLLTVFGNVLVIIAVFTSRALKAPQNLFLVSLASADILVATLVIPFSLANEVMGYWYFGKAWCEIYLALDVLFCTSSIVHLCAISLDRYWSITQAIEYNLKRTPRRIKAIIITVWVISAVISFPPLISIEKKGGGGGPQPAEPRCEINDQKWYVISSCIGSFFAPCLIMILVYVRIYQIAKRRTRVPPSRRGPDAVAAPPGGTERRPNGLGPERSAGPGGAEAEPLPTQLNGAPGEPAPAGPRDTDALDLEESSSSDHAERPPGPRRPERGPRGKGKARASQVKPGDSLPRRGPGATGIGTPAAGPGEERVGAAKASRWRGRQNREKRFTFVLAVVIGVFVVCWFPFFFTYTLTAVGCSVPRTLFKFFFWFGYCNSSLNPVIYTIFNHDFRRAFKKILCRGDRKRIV
Method: as §1
as §2, with “Plates” for “Assay buffer was 75 mM Tris-HCl pH 7.4, 12.5 mM MgCl2, 2 mM EDTA and 1 μM GDP. Plates”
as §3

[5] = biological target: T1, α2b adrenoreceptor; experiment: Competition binding, [3H]-UK14304, α2b CHO cell membranes; settings: for inhibition of [3H]-UK14304 binding, α2b (in words): CHO cell membranes
Method: as §1, §4, §5, §3

[6] = biological target: T4, α2c adrenoreceptor (Homo sapiens, UniProt P18825); experiment: [35S]-GTPγS binding exchange, α2c CHO cell membranes; assay type: biochemical; settings: for stimulation of [35S]-GTPγS binding, α2c (in words): CHO cell membranes
T4 construct: expressed in transfected cells; host or cells: CHO (Chinese hamster ovary) cells, membranes
T4 sequence (P18825 1-462): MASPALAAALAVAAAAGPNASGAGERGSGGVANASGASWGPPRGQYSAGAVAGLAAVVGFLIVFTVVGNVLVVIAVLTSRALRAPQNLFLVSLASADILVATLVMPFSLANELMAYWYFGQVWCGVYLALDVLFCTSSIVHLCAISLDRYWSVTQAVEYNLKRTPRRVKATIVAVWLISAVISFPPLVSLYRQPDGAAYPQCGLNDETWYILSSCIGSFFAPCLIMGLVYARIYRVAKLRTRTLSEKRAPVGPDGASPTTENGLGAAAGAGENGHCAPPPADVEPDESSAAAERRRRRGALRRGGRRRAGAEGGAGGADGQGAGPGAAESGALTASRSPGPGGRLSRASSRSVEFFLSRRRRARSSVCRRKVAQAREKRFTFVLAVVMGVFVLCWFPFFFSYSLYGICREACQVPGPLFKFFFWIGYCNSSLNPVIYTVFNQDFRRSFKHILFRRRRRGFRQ
Method: as §1, §2, §3

[7] = highest concentration evaluated (10 μM)

**Q.** Which “stimulation of [35S]-GTPγS binding, α2b (in words)” value (shortened to “stimulation … α2b (in words)”) [1] does the source give for `O=C(O)C(O)c1cccc(O)c1` (centres unmarked) [3-hydroxymandelic acid] here?
**A.** no activity

**Q.** And the “agonist activity, α2b [35S]-GTPγS assay (in words)” value [1, 7]?
**A.** no activity

**Q.** And the EC50 ([1]; read-out: EC50, a2b GTPγS (class symbol))?
**A.** > 10 µM

**Q.** And the “metabolite excreted in the urine” value [2]?
**A.** 30 % of dose

**Q.** What about the Ki ([3]; [3H]-prazosin, read-out: Ki, a1b Binding (class symbol)) of the same compound?
**A.** > 100 µM

**Q.** And the “binding / affinity, α1b receptor (in words)” value ([3]; concentrations up to 100 μM)?
**A.** No appreciable binding; also recorded: no affinity

**Q.** And the “stimulation of [35S]-GTPγS binding, α2a (in words)” value [4]?
**A.** no activity

**Q.** And the “agonist activity, α2a [35S]-GTPγS assay (in words)” value [4, 7]?
**A.** no activity

**Q.** What about the EC50 ([4]; read-out: EC50, a2a GTPγS (class symbol)) of the same compound?
**A.** > 10 µM

**Q.** And the “inhibition of [3H]-UK14304 binding, α2b (in words)” value (from here on “inhibition of [3H]-UK14304 binding”) [5]?
**A.** no significant binding

**Q.** What about the Ki ([5]; [3H]-UK14304, read-out: Ki, a2b Binding (class symbol)) of the same compound?
**A.** > 100 µM

**Q.** What about the “binding / affinity, α2b receptor (in words)” value ([5]; at 100 μM (highest concentration evaluated)) of the same compound?
**A.** no affinity

**Q.** And the “stimulation of [35S]-GTPγS binding, α2c (in words)” value (from here on “stimulation … α2c (in words)”) [6]?
**A.** no activity

**Q.** What about the “agonist activity, α2c [35S]-GTPγS assay (in words)” value [6, 7] of the same compound?
**A.** no activity

**Q.** And the EC50 ([6]; read-out: EC50, a2c GTPγS (class symbol))?
**A.** > 10 µM

**Q.** For `CNC[C@H](O)c1cccc(O[C@@H]2O[C@H](C(=O)O)[C@@H](O)[C@H](O)[C@H]2O)c1` [PE glucuronide, (R)-PE glucuronide], which “stimulation … α2b (in words)” value [1] is on record?
**A.** pharmacologically inactive

**Q.** What about the “stimulation … α2b (in words)” value ([1]; listed as PE glucuronide b2) of the same compound?
**A.** No stimulatory activity

**Q.** And the “metabolite excreted in the urine” value [2]?
**A.** 12 % of dose

**Q.** What about the “inhibition of 3H-prazosin binding, α1b (in words)” value ([3]; CHO cell membranes) of the same compound?
**A.** No appreciable binding; also recorded: no binding affinity; also recorded: pharmacologically inactive

**Q.** What about the “stimulation of [35S]-GTPγS binding, α2a (in words)” value [4] of the same compound?
**A.** nor did it activate binding; also recorded: pharmacologically inactive

**Q.** And the “activity in α2a [35S]-GTPγS assay (in words)” value ([4]; highest concentration, 100 μM)?
**A.** very weak binding

**Q.** What about the “inhibition of [3H]-UK14304 binding” value [5] of the same compound?
**A.** weakly inhibits binding; also recorded: pharmacologically inactive

**Q.** What about the “inhibition of [3H]-UK14304 binding” value ([5]; listed as PE glucuronide b4) of the same compound?
**A.** A small amount of binding

**Q.** What about the “inhibition of [3H]-UK14304 binding” value ([5]; listed as PE glucuronide batch 4) of the same compound?
**A.** minimal activity

**Q.** And the “stimulation … α2c (in words)” value [6]?
**A.** nor did it activate binding; also recorded: pharmacologically inactive

**Q.** What about the “stimulation … α2c (in words)” value ([6]; listed as PE glucuronide b2) of the same compound?
**A.** No stimulatory activity
